Measurements reported in US11180452B2, “Methods and compositions for selectively inhibiting pathogenic microbes” (priority 2019, dated 2021).
In brackets after ≈: the same amount, converted by molar mass. Like-named read-outs stand apart in the source and are kept apart here.

Tests used:
NoSpin HepaRG cells = test: HepaRG cytotoxicity, MTT assay EC50; type: cell-based, human; details: Homo sapiens, HepaRG; cytotoxicity EC50, Table 9
Experimental: Additionally, the antimicrobial compounds were analyzed for cytotoxicity. […] We utilized the standard MTT assay (Promega CellTiter 96) and GraphPad Prism 7 software to determine EC50 values for each analogue. Briefly, 20,000 HepG2 cells in 200 μl of the ATCC recommended media were seeded in each well of a 96-well plate with a moisture barrier created in the outermost wells. The cells were allowed to attach overnight at 37° C., and then observed under phase contrast microscopy for proper morphological characteristics. […] Once incubations were complete, the spectrophotometric absorbance of the samples was measured at a wavelength of 595 nm. […] For the HepaRG assay, NoSpin HepaRG™ cells (Lonza, cat #NSHPRG) were thawed and plated with 20,000 cells per well. They were allowed to attach for 4 h (optimal DME profile per Lonza's testing) before dosing following the identical protocol as above.

Bacillus thuringiensis = type: cell-based; details: Bacillus thuringiensis Berliner ATCC: 10792; for MIC: Bacillus thuringiensis, read-out: MIC
Trichophyton rubrum = test: MIC against Trichophyton rubrum; type: cell-based; details: Trichophyton rubrum Castellani Sabouraud ATCC: 28188; read-out: MIC
[1] = system: Francisella tularensis subsp. Holarctica Strain LVSR NR-597; test: microbe, parasite or virus in culture; type: cell-based
Bacillus subtilis = Bacillus subtilis MIC / MBC; type: cell-based; details: for MIC: Bacillus subtilis, Bacillus subtilis (Ehrenberg 1835) Cohn 1872 NRRL: B-571, read-out: MIC; for MBC: Bacillus subtilis NRRL: B-571, minimum bactericidal concentration
Candida glabrata = Candida glabrata MIC / MFC; type: cell-based; details: Nakaseomyces glabratus; for MIC: read-out: MIC; for MFC: read-out: MFC
[2] = system: Burkholderia thailandensis Brett et al ATCC: 700388; test: microbe, parasite or virus in culture; type: cell-based
C. albicans = test: Candida albicans MIC / MFC; type: cell-based
[3] = system: Francisella tularensis strains; test: microbe, parasite or virus in culture; type: cell-based
[4] = C. albicans strain #761, read-out: MIC
[5] = C. albicans strain #762, read-out: MFC
[6] = Candida glabrata #584 (Table 2)
[7] = Candida glabrata #584 (Table 2), minimum fungicidal concentration

| SMILES | EC50 (NoSpin HepaRG cells) [µg/mL] | MBC (Bacillus thuringiensis) [µg/mL] | MIC (Bacillus thuringiensis) [µg/mL] | MIC (Trichophyton rubrum) [µg/mL] | MIC [1] [µg/mL] | MIC (Bacillus subtilis) [µg/mL] | MIC [2] [µg/mL] | MIC (Candida glabrata; [6]) [µg/mL] | MBC [2] [µg/mL] | MBC (Bacillus subtilis) [µg/mL] | other results |
| --- | --- | --- | --- | --- | --- | --- | --- | --- | --- | --- | --- |
| Brc1ccc(Sc2c[nH]c3cccc(Br)c23)cc1 [Compound 174D, 4-bromo-3-((4-bromophenyl)thio)-1H-indole] | 23.2 (≈ 60.6 µM) | 3.13 (≈ 8.17 µM) | 1.56 (≈ 4.07 µM) | 2.38 (≈ 6.21 µM) | 1.56 (≈ 4.07 µM) | 1.56 (≈ 4.07 µM) | > 50 | – | – | – | MIC (Candida glabrata; C. glabrata strain #325): > 50 µg/mL; MIC (C. albicans; [4]): > 50 µg/mL; MFC (C. albicans; [5]): 12.5 µg/mL (≈ 32.6 µM) |
| Brc1ccc2[nH]cc(Sc3c[nH]c4ccccc34)c2c1 [Compound 174AL, 3-((1H-indol-3-yl)thio)-5-bromo-1H-indole] | 26.1 (≈ 76 µM) | > 50 | – | – | – | – | > 50 | – | – | – | – |
| OCc1[nH]c2ccc(Br)cc2c1Sc1ccccc1Br [Compound 177H, (5-bromo-3-((2-bromophenyl)thio)-1H-indol-2-yl)methanol] | 31.8 (≈ 77 µM) | – | – | – | 3.13 (≈ 7.58 µM) | 1.56 (≈ 3.78 µM) | > 50 | 50 (≈ 121 µM) | > 50 | – | – |
| Nc1cc(Br)ccc1Sc1c[nH]c2ccc(Br)cc12 [Compound 174X, 5-bromo-2-((5-bromo-1H-indol-3-yl)thio)aniline] | 30.2 (≈ 75.9 µM) | 2.5 (≈ 6.28 µM) | 2.5 (≈ 6.28 µM) | 0.62 (≈ 1.56 µM) | – | 1.56 (≈ 3.92 µM) | > 50 | – | – | > 10 | MFC (Candida glabrata; C. glabrata strain #325): > 50 µg/mL; MIC (Candida glabrata; C. glabrata strain #325): 12.5 µg/mL (≈ 31.4 µM); MFC (Candida glabrata; [7]): 6.25 µg/mL (≈ 15.7 µM); MFC (C. albicans; C. albicans strain #761, read-out: MFC): > 50 µg/mL; MIC (C. albicans; [4]): 12.5 µg/mL (≈ 31.4 µM); MFC (C. albicans; [5]): > 50 µg/mL; MIC (C. albicans; C. albicans strain #762, read-out: MIC): 12.5 µg/mL (≈ 31.4 µM); MIC50 [3]: 4 µg/mL (≈ 10 µM); MIC ([3]; read-out: F. tularensis BSL-3 MIC, Strain 100): 8 µg/mL (≈ 20.1 µM); MIC ([3]; read-out: F. tularensis BSL-3 MIC, strain HN-63): 4 µg/mL (≈ 10 µM); MIC ([3]; read-out: F. tularensis BSL-3 MIC, strain LVS): > 8 µg/mL; MIC ([3]; read-out: F. tularensis BSL-3 MIC, strain MA00-2987): 4 µg/mL (≈ 10 µM); MIC ([3]; read-out: F. tularensis BSL-3 MIC, strain MO #1): 2.67 µg/mL (≈ 6.71 µM); MIC ([3]; read-out: F. tularensis BSL-3 MIC, strain MO #2): 2 µg/mL (≈ 5.02 µM); MIC ([3]; read-out: F. tularensis BSL-3 MIC, strain MO #3): 4 µg/mL (≈ 10 µM); MIC ([3]; read-out: F. tularensis BSL-3 MIC, strain OR-96): 4 µg/mL (≈ 10 µM); MIC ([3]; read-out: F. tularensis BSL-3 MIC, strain SCHU S4): 4 µg/mL (≈ 10 µM); MIC ([3]; read-out: F. tularensis BSL-3 MIC, strain WY-96): 3 µg/mL (≈ 7.54 µM); MIC ([3]; read-out: MAX, highest MIC over the Francisella tularensis strains): > 8 µg/mL; MIC ([3]; read-out: MIN, lowest MIC over the Francisella tularensis strains): 2 µg/mL (≈ 5.02 µM) |
| Fc1ccc2[nH]cc(Sc3ccccc3Br)c2c1 [Compound 177E, 3-((2-bromophenyl)thio)-5-fluoro-1H-indole] | 31.6 (≈ 98.1 µM) | – | – | – | 0.78 (≈ 2.42 µM) | 1.56 (≈ 4.84 µM) | > 50 | 25 (≈ 77.6 µM) | > 50 | – | – |
| FC(F)(F)c1ccc2[nH]cc(Sc3ccccc3C(F)(F)F)c2c1 [Compound 177F, 5-(trifluoromethyl)-3-((2-(trifluoromethyl)phenyl)thio)-1H-indole] | 29.8 (≈ 82.5 µM) | – | – | – | 1.56 (≈ 4.32 µM) | 1.56 (≈ 4.32 µM) | > 50 | 50 (≈ 138 µM) | > 50 | – | – |
| Clc1ccc(Sc2c[nH]c3ccc(Br)cc23)cc1 [Compound 174J, 5-bromo-3-((4-chlorophenyl)thio)-1H-indole] | 25.3 (≈ 74.7 µM) | 1.56 (≈ 4.61 µM) | 1.56 (≈ 4.61 µM) | 1.05 (≈ 3.1 µM) | – | 1.56 (≈ 4.61 µM) | > 50 | 6.25 (≈ 18.5 µM) | – | 3.13 (≈ 9.24 µM) | MFC (Candida glabrata; [7]): > 50 µg/mL |
| Clc1ccc2[nH]cc(Sc3ccc(Br)cc3)c2c1 [Compound 174C, 3-((4-bromophenyl)thio)-5-chloro-1H-indole] | 25.4 (≈ 75 µM) | 1.56 (≈ 4.61 µM) | 1.56 (≈ 4.61 µM) | 2.11 (≈ 6.23 µM) | 1.56 (≈ 4.61 µM) | 1.56 (≈ 4.61 µM) | > 50 | 3.13 (≈ 9.24 µM) | – | 3.13 (≈ 9.24 µM) | – |
